{"source": "PubChem BioAssay AID342", "about": "(DTP/NCI, 2004)", "test_system": "Swiss mice, Sarcoma 180 sc, mean tumor weight T/C", "assay": "NCI In Vivo Anticancer Drug Screen. Data for tumor model Sarcoma 180 (subcutaneous) in Swiss mice", "conditions": "endpoint: mean tumor weight, higher = larger tumour", "summary_of_the_method": "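Readout is the ratio of treated-group measurement to vehicle-control measurement (T/C), based on survival or tumor size in mice carrying transplanted tumors.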", "key": {"[1]": {"conditions": "dose: 500.0 mg/kg/injection, schedule: Q01DX007 (ip), vehicle: saline"}}, "note": "“And” between values parts separate entries of the source, which are not always exact repeats. Identical values can stand only once."}
{"smiles": "CS(=O)(=O)OCCCCOS(C)(=O)=O", "values": [{"measurement": "T/C", "setting": "dose: 4.12 mg/kg/injection, schedule: Q#A X014 (ip), vehicle: carboxymethylcellulose (CMC)", "value": "108 % of control"}, {"measurement": "T/C", "setting": "dose: 6.25 mg/kg/injection, schedule: Q#A X014 (ip), vehicle: carboxymethylcellulose (CMC)", "value": "91 % of control"}, {"measurement": "T/C", "setting": "dose: 8.25 mg/kg/injection, schedule: Q#A X014 (ip), vehicle: carboxymethylcellulose (CMC)", "value": "119 % of control"}, {"measurement": "T/C", "setting": "dose: 9.87 mg/kg/injection, schedule: Q01DX007 (ip), vehicle: carboxymethylcellulose (CMC)", "value": "87 % of control"}, {"measurement": "T/C", "setting": "dose: 12.5 mg/kg/injection, schedule: Q#A X014 (ip), vehicle: carboxymethylcellulose (CMC)", "value": "103 % of control"}, {"measurement": "T/C", "setting": "dose: 16.5 mg/kg/injection, schedule: Q#A X014 (ip), vehicle: carboxymethylcellulose (CMC)", "value": "85 % of control"}, {"measurement": "T/C", "setting": "dose: 19.75 mg/kg/injection, schedule: Q01DX007 (ip), vehicle: carboxymethylcellulose (CMC)", "value": "65 % of control"}, {"measurement": "T/C", "setting": "dose: 25.0 mg/kg/injection, schedule: Q#A X014 (ip), vehicle: carboxymethylcellulose (CMC)", "value": "96 % of control"}, {"measurement": "T/C", "setting": "dose: 33.0 mg/kg/injection, schedule: Q#A X014 (ip), vehicle: carboxymethylcellulose (CMC)", "value": "66 % of control"}, {"measurement": "T/C", "setting": "dose: 39.5 mg/kg/injection, schedule: Q01DX007 (ip), vehicle: carboxymethylcellulose (CMC)", "value": "60 % of control"}]}
{"smiles": "S=C(N=Nc1ccccc1)NNc1ccccc1", "values": [{"measurement": "T/C", "setting": "dose: 37.5 mg/kg/injection, schedule: Q01DX007 (ip), vehicle: carboxymethylcellulose (CMC)", "value": "110 % of control"}, {"measurement": "T/C", "setting": "dose: 75.0 mg/kg/injection, schedule: Q01DX007 (ip), vehicle: carboxymethylcellulose (CMC)", "value": "47 % of control"}]}
{"smiles": "Clc1ccccc1/C=C/C=C1c2ccccc2-c2ccccc21", "values": [{"measurement": "T/C", "setting": "dose: 222.0 mg/kg/injection, schedule: Q01DX007 (ip), vehicle: other", "value": "72 % of control"}, {"measurement": "T/C", "setting": "dose: 222.0 mg/kg/injection, schedule: Q01DX007 (ip), vehicle: saline", "value": "83 % of control"}, {"measurement": "T/C", "setting": "dose: 333.0 mg/kg/injection, schedule: Q01DX007 (ip), vehicle: other", "value": "78 % of control"}, {"measurement": "T/C", "setting": "dose: 333.0 mg/kg/injection, schedule: Q01DX007 (ip), vehicle: saline", "value": "95 % of control"}, {"measurement": "T/C", "setting": "dose: 492.0 mg/kg/injection, schedule: Q01DX007 (ip), vehicle: saline", "value": "56 % of control"}, {"measurement": "T/C", "setting": "dose: 500.0 mg/kg/injection, schedule: Q01DX007 (ip), vehicle: other", "value": "50 % of control"}, {"measurement": "T/C", "setting": "[1]", "value": "79 % of control"}, {"measurement": "T/C", "setting": "dose: 750.0 mg/kg/injection, schedule: Q01DX007 (ip), vehicle: other", "value": "49 % of control"}, {"measurement": "T/C", "setting": "dose: 1119.0 mg/kg/injection, schedule: Q01DX007 (ip), vehicle: saline", "value": "58 % of control"}, {"measurement": "T/C", "setting": "dose: 1679.0 mg/kg/injection, schedule: Q01DX007 (ip), vehicle: saline", "value": "54 % of control"}]}
{"smiles": "COc1ccc2c3c(c4cc(OC)c(OC)cc4c2c1)C[C@H]1CCCCN1C3", "values": [{"measurement": "T/C", "setting": "dose: 0.5 mg/kg/injection, schedule: Q01DX007 (ip), vehicle: carboxymethylcellulose (CMC)", "value": "82 % of control"}, {"measurement": "T/C", "setting": "dose: 1.0 mg/kg/injection, schedule: Q01DX007 (ip), vehicle: carboxymethylcellulose (CMC)", "value": "65 % of control"}]}
{"smiles": "NC(=O)Oc1ccccc1", "values": [{"measurement": "T/C", "setting": "dose: 220.0 mg/kg/injection, schedule: Q01DX007 (ip), vehicle: other", "value": "69 % of control"}, {"measurement": "T/C", "setting": "dose: 330.0 mg/kg/injection, schedule: Q01DX007 (ip), vehicle: other", "value": "84 % of control"}, {"measurement": "T/C", "setting": "dose: 492.0 mg/kg/injection, schedule: Q01DX007 (ip), vehicle: other", "value": "65 % of control"}]}
{"smiles": "CC1CN(C(=O)CCl)c2ccccc2N1C(=O)CCl", "note": "(stereo not given)", "values": [{"measurement": "T/C", "setting": "dose: 2.0 mg/kg/injection, schedule: Q01DX007 (ip), vehicle: carboxymethylcellulose (CMC)", "value": "121 % of control"}, {"measurement": "T/C", "setting": "dose: 4.0 mg/kg/injection, schedule: Q01DX007 (ip), vehicle: carboxymethylcellulose (CMC)", "value": "114 % of control"}]}
{"smiles": "COc1ccc(-c2cc(=O)c3c(O)cc(OC)cc3o2)cc1", "values": [{"measurement": "T/C", "setting": "dose: 220.0 mg/kg/injection, schedule: Q01DX007 (ip), vehicle: saline", "value": "76 % of control"}, {"measurement": "T/C", "setting": "dose: 330.0 mg/kg/injection, schedule: Q01DX007 (ip), vehicle: saline", "value": "66 % of control"}, {"measurement": "T/C", "setting": "[1]", "value": "81 % of control"}]}
{"smiles": "Clc1ccc(C[P+](c2ccccc2)(c2ccccc2)c2ccccc2)cc1Cl", "values": [{"measurement": "T/C", "setting": "dose: 3.6 mg/kg/injection, schedule: Q01DX007 (ip), vehicle: carboxymethylcellulose (CMC)", "value": "66 % of control and 69 % of control"}, {"measurement": "T/C", "setting": "dose: 5.3 mg/kg/injection, schedule: Q01DX007 (ip), vehicle: carboxymethylcellulose (CMC)", "value": "63 % of control and 71 % of control"}, {"measurement": "T/C", "setting": "dose: 8.0 mg/kg/injection, schedule: Q01DX007 (ip), vehicle: carboxymethylcellulose (CMC)", "value": "46 % of control"}]}
